For 25 compounds, IC50 results are on record in US12595253B2, “Benzamides of pyrazolylamino-pyrimidinyl derivatives, and compositions and methods thereof” (LYNK PHARMACEUTICALS CO. LTD., priority 2019, dated 2026).

For one experiment, the target named is T1, JAK1 (Homo sapiens, UniProt P23458).
T1 construct: purchased Carna Biosciences
The experiment in a line: JAK1 microfluidic kinase assay (Caliper EZ Reader II, FAM labeled peptide substrate). Type of experiment: biochemical. As to conditions: IC50 JAK1 (5 nM) (1 m MATP), JAK1 5 nM, 1 mM ATP. The method, then: (§1) Compounds were tested against JAK1, JAK2, JAK2V617F and TYK2. Assay Formats: JAK activity was determined in the reaction buffer 50 mM HEPES, 0.01% Brij35, 10 mM MgCl2, 2 mM DTT by a microfluidic assay. The phosphorylation of a FAM labeled peptide substrate was monitored in the Caliper EZ Reader II (Perkin Elmer). The assay condition for each batch of enzyme (Carna Biosciences) was optimized to obtain 10% conversion rate of peptide substrate. The test compounds were dissolved in DMSO to a stock concentration of 10 mM. 3-fold serially diluted compounds with top concentration of 5 μM were pre-incubated with JAK1, JAK2, JAK2V617F or TYK2 at indicated concentrations for 10 min at ambient temperature. The final DMSO concentration of assay mixture was 1%. […] The reaction was stopped by adding 50 mM EDTA. […] The percent inhibition was calculated by the following formula. % Inhibition=(Conversionmax−Conversionsample)/(Conversionmax−Conversionmin)*100 • Conversionmax means the conversion rate in the positive well without addition of compound • Conversionmin means the conversion rate in the well without addition of enzyme • Conversionsample means the conversion rate of test compounds The dose-response (percent inhibition) curve was plotted and IC50 values were determined by GraphPad software.

The next experiment has as its target T2, JAK2V617F (Homo sapiens, UniProt O60674, V617F).
T2 construct: purchased Carna Biosciences
The experiment in a line: JAK2V617F microfluidic kinase assay (Caliper EZ Reader II, FAM labeled peptide substrate). To be noted: JAK2V617F 2.5 nM, 1 mM ATP. Type of experiment: biochemical. The method, then: as §1

pIC50: −log10 of the molar value.

T2 sequence (O60674 whole entry V617F): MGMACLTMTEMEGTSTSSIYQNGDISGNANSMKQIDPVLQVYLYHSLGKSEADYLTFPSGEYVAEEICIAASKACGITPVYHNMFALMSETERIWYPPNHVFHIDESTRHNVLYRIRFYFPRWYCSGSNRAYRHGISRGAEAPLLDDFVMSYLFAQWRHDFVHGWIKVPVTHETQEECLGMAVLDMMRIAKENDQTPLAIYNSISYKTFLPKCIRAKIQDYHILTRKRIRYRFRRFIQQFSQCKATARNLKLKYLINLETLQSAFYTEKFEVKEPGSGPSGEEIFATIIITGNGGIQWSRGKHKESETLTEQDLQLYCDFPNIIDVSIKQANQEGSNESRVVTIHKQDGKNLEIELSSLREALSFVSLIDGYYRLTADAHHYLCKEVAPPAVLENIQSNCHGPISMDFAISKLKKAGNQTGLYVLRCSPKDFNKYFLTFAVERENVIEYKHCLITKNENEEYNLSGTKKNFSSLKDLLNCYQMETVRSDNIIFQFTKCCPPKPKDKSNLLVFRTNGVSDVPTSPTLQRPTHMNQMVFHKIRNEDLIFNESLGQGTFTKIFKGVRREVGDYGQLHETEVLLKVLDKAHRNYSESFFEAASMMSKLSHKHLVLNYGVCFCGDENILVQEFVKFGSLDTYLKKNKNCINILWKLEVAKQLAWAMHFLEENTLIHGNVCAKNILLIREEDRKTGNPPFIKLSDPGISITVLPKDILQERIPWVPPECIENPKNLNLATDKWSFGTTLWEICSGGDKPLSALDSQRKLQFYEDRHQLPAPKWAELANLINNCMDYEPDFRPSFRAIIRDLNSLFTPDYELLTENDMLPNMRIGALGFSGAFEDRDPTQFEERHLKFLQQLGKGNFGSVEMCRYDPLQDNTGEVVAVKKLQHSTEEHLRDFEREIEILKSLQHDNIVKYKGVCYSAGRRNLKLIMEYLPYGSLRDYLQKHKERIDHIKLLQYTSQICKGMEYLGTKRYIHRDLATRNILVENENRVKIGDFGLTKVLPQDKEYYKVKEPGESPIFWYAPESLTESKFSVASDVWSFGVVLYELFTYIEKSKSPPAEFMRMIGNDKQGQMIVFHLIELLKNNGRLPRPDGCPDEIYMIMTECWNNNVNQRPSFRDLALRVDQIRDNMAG
T1 sequence (P23458 whole entry): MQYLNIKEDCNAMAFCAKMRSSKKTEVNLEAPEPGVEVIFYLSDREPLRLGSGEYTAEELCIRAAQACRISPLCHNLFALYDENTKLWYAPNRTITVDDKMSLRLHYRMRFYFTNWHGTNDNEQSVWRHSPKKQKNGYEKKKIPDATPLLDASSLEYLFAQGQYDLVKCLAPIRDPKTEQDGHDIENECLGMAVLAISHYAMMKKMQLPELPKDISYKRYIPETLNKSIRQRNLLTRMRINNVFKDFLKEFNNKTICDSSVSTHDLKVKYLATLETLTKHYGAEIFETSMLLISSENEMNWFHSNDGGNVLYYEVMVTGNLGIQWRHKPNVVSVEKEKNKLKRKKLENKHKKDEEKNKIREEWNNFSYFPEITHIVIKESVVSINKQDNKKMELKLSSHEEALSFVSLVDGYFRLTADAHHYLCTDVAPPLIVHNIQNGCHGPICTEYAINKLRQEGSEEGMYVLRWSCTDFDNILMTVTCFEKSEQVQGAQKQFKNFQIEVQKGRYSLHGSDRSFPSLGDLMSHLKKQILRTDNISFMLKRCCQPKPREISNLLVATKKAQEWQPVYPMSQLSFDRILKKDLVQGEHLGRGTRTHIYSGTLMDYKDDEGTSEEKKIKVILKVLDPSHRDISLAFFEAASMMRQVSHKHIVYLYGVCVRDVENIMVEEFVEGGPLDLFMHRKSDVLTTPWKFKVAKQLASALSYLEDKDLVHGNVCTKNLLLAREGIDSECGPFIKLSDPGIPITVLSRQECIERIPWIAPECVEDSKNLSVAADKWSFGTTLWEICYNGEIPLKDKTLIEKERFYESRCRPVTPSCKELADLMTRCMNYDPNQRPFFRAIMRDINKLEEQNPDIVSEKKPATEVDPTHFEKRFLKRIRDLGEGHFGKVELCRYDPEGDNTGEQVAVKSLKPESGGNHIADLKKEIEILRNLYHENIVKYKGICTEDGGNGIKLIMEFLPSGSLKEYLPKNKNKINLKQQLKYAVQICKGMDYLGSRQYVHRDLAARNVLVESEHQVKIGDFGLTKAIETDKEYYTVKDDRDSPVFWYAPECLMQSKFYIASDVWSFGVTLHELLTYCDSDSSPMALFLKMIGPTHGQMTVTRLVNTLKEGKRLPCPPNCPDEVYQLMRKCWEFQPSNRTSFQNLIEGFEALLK

Take `Cc1cnc(Nc2cnn(C3CC3)c2)nc1-c1ccc(C(=O)N[C@H](C#N)C2CC2)cc1` [Example 194, (S)—N-(cyano(cyclopropyl)methyl)-4-(2-((1-cyclopropyl-1H-pyrazol-4-yl)amino)-5-methylpyrimidin-4-yl)benzamide]: the results for the negative-log IC50 (pIC50) at JAK1 and on JAK2V617F were 8.25 and 7.47, respectively.

On to `CCC[C@@H](C#N)NC(=O)c1ccc(-c2nc(Nc3cnn(C4CC4)c3)ncc2C)cc1` [Example 202, (S)—N-(1-cyanobutyl)-4-(2-((1-cyclopropyl-1H-pyrazol-4-yl)amino)-5-methylpyrimidin-4-yl)benzamide], for which the pIC50 on JAK1 is 8.53; against JAK2V617F, 7.62.

On to `Cc1cnc(Nc2cnn(C3CCC(F)(F)CC3)c2)nc1-c1ccc(C(=O)NCC#N)cc1` [Example 84, N-(cyanomethyl)-4-(2-((1-(4,4-difluorocyclohexyl)-1H-pyrazol-4-yl)amino)-5-methylpyrimidin-4-yl)benzamide], for which the pIC50 is 7.96 against JAK1 and 7.88 on JAK2V617F.

As to `CC[C@@H](C#N)NC(=O)c1ccc(-c2nc(Nc3cnn(C4CCOCC4)c3)ncc2Cl)cc1` [Example 203, (S)-4-(5-chloro-2-((1-(tetrahydro-2H-pyran-4-yl)-1H-pyrazol-4-yl)amino)pyrimidin-4-yl)-N-(1-cyanopropyl)benzamide], the pIC50 is 8.30 at JAK1 and 8.51 at JAK2V617F.

On to `CC[C@@H](C#N)NC(=O)c1ccc(-c2nc(Nc3cnn(C4CC4)c3)ncc2C)cc1` [Example 193, (S)—N-(1-cyanopropyl)-4-(2-((1-cyclopropyl-1H-pyrazol-4-yl)amino)-5-methylpyrimidin-4-yl)benzamide], for which the pIC50 is 8.82 at JAK1 and 7.37 against JAK2V617F.

For the compound `Cc1cnc(Nc2cnn(C3CCC(F)(F)CC3)c2)nc1-c1ccc(C(=O)N[C@@H](C)C#N)cc1` [Example 85, (S)—N-(1-cyanoethyl)-4-(2-((1-(4,4-difluorocyclohexyl)-1H-pyrazol-4-yl)amino)-5-methylpyrimidin-4-yl)benzamide], the pIC50 against JAK1 is 7.95; against JAK2V617F it was 8.66.

`Cc1cnc(Nc2cnn(C3CCOCC3)c2)nc1-c1ccc(C(=O)NCC(C)(C)C#N)cc1` [Example 133, N-(2-cyano-2-methylpropyl)-4-(5-methyl-2-((1-(tetrahydro-2H-pyran-4-yl)-1H-pyrazol-4-yl)amino)pyrimidin-4-yl)benzamide]: the results for the pIC50 on JAK1 and on JAK2V617F were 7.72 and 7.45, respectively.

Turning to `Cc1cnc(Nc2cnn(C3C[C@H]4CC[C@@H](C3)O4)c2)nc1-c1ccc(C(=O)NCC#N)cc1` (stereo partly drawn) [Example 69, 4-(2-((1-((1R,5S)-8-oxabicyclo[3.2.1]octan-3-yl)-1H-pyrazol-4-yl)amino)-5-methylpyrimidin-4-yl)-N-(cyanomethyl)benzamide], the pIC50 on JAK1 was 7.84; against JAK2V617F it was 7.66.

With `C[C@H](C#N)NC(=O)c1ccc(-c2nc(Nc3cnn(C4CCN(C)CC4)c3)ncc2F)cc1` [Example 63, (R)—N-(1-Cyanoethyl)-4-(5-fluoro-2-((1-(1-methylpiperidin-4-yl)-1H-pyrazol-4-yl)amino)pyrimidin-4-yl)benzamide], the pIC50 is 6.53 on JAK1 and 6.07 on JAK2V617F.

In the case of `Cc1cnc(Nc2cnn(C3CCOCC3)c2)nc1-c1ccc(C(=O)N[C@H](C)C#N)cc1` [Example 96, (R)—N-(1-cyanoethyl)-4-(5-methyl-2-((1-(tetrahydro-2H-pyran-4-yl)-1H-pyrazol-4-yl)amino)pyrimidin-4-yl)benzamide], the figures for the pIC50 against JAK1 and at JAK2V617F were 7.29 and 7.07, respectively.

Turning to `Cc1cnc(Nc2cnn([C@H]3CC[C@@H](C#N)CC3)c2)nc1-c1ccc(C(=O)NCC#N)cc1` [Example 148, 4-(2-((1-(Cis-4-cyanocyclohexyl)-1H-pyrazol-4-yl)amino)-5-methylpyrimidin-4-yl)-N-(cyanomethyl)benzamide], the pIC50 on JAK1 is 7.86; against JAK2V617F, 7.46.

`Cc1cnc(Nc2cnn(C3CC4CCC(C3)N4C(=O)C3CC3)c2)nc1-c1ccc(C(=O)NCC#N)cc1` [Example 64, N-(cyanomethyl)-4-(2-((1-((1R,3r,5S)-8-(cyclopropanecarbonyl)-8-azabicyclo[3.2.1]octan-3-yl)-1H-pyrazol-4-yl)amino)-5-methylpyrimidin-4-yl)benzamide]: the pIC50 on JAK1 was 7.47; at JAK2V617F, 7.39.

As to `N#CCNC(=O)c1ccc(-c2nc(Nc3cnn(C4CCOCC4)c3)ncc2Cl)cc1` [Example 146, 4-(5-chloro-2-((1-(tetrahydro-2H-pyran-4-yl)-1H-pyrazol-4-yl)amino)pyrimidin-4-yl)-N-(cyanomethyl)benzamide], the pIC50 against JAK1 was 7.87; at JAK2V617F, 7.85.

Consider `Cc1cnc(Nc2cnn(C3CCOCC3)c2)nc1-c1ccc(C(=O)NCC(F)(F)F)cc1` [Example 76, 4-(5-Methyl-2-((1-(tetrahydro-2H-pyran-4-yl)-1H-pyrazol-4-yl)amino)pyrimidin-4-yl)-N-(2,2,2-trifluoroethyl)benzamide], for which the figures for the pIC50 on JAK1 and at JAK2V617F were 8.13 and 8.16, respectively.

For the compound `Cc1cnc(Nc2cnn([C@H]3CC[C@H](C#N)CC3)c2)nc1-c1ccc(C(=O)NCC#N)cc1` [Example 147, 4-(2-((1-(Trans-4-cyanocyclohexyl)-1H-pyrazol-4-yl)amino)-5-methylpyrimidin-4-yl)-N-(cyanomethyl)benzamide], the pIC50 against JAK1 was 7.97; against JAK2V617F it was 7.70.

On to `Cc1cnc(Nc2cnn(C3CCOC(C)C3)c2)nc1-c1ccc(C(=O)NCC#N)cc1` (centres unmarked) [Example 72, N-(cyanomethyl)-4-(5-methyl-2-((1-(2-methyltetrahydro-2H-pyran-4-yl)-1H-pyrazol-4-yl)amino)pyrimidin-4-yl)benzamide], for which the pIC50 at JAK1 is 7.55; against JAK2V617F, 7.47.

As to `Cc1cnc(Nc2cnn(C3CC4CCC(C3)N4C(=O)C3(C)CC3)c2)nc1-c1ccc(C(=O)NCC#N)cc1` [Example 65, N-(cyanomethyl)-4-(5-methyl-2-((1-((1R,3r,5S)-8-(1-methylcyclopropanecarbonyl)-8-azabicyclo[3.2.1]octan-3-yl)-1H-pyrazol-4-yl)amino)pyrimidin-4-yl)benzamide], the pIC50 is 7.56 against JAK1 and 8.34 on JAK2V617F.

Turning to `Cc1cnc(Nc2cnn(C3CCN(C(=O)C4(O)CC4)CC3)c2)nc1-c1ccc(C(=O)NCC#N)cc1` [Example 74, N-(cyanomethyl)-4-(2-((1-(1-(1-hydroxycyclopropanecarbonyl)piperidin-4-yl)-1H-pyrazol-4-yl)amino)-5-methylpyrimidin-4-yl)benzamide], the pIC50 was 7.84 at JAK1 and 8.38 at JAK2V617F.

With `CC(=O)N1CC(n2cc(Nc3ncc(C)c(-c4ccc(C(=O)N[C@@H](C)C#N)cc4)n3)cn2)C1` [Example 157], the pIC50 against JAK1 is 7.65; on JAK2V617F, 7.48.

As to `Cc1cnc(Nc2cnn(C3CCCOC3)c2)nc1-c1ccc(C(=O)NCC#N)cc1` (centres unmarked) [Example 67, N-(cyanomethyl)-4-(5-methyl-2-((1-(tetrahydro-2H-pyran-3-yl)-1H-pyrazol-4-yl)amino)pyrimidin-4-yl)benzamide], the pIC50 is 7.77 against JAK1 and 7.57 against JAK2V617F.

Regarding `Cc1cnc(Nc2cnn(C3CC3)c2)nc1-c1ccc(C(=O)N[C@H](C#N)C(C)C)cc1` [Example 197, (S)—N-(1-Cyano-2-methylpropyl)-4-(2-((1-cyclopropyl-1H-pyrazol-4-yl)amino)-5-methylpyrimidin-4-yl)benzamide], the pIC50 against JAK1 was 8.38; against JAK2V617F it was 7.56.

For the compound `Cc1cnc(Nc2cnn(C3CN(C(=O)C4CC4)C3)c2)nc1-c1ccc(C(=O)N[C@@H](C)C#N)cc1` [Example 71, (S)—N-(1-cyanoethyl)-4-(2-((1-(1-(cyclopropanecarbonyl)azetidin-3-yl)-1H-pyrazol-4-yl)amino)-5-methylpyrimidin-4-yl)benzamide], the pIC50 on JAK1 was 7.59; against JAK2V617F it was 7.37.

Regarding `Cc1cnc(Nc2cnn(C3CCOCC3)c2)nc1-c1ccc(C(=O)NCCC(F)(F)F)cc1` [Example 77, 4-(5-Methyl-2-((1-(tetrahydro-2H-pyran-4-yl)-1H-pyrazol-4-yl)amino)pyrimidin-4-yl)-N-(3,3,3-trifluoropropyl)benzamide], the pIC50 against JAK1 is 7.36; against JAK2V617F, 7.12.

As to `Cc1cnc(Nc2cnn(C3CC(F)(F)C3)c2)nc1-c1ccc(C(=O)N[C@@H](C)C#N)cc1` [Example 155, (S)—N-(1-cyanoethyl)-4-(2-((1-(3,3-difluorocyclobutyl)-1H-pyrazol-4-yl)amino)-5-methylpyrimidin-4-yl)benzamide], the pIC50 was 6.32 against JAK1 and 5.72 on JAK2V617F.

On to `N#CCNC(=O)c1ccc(-c2nc(Nc3cnn(C4CCOCC4)c3)ncc2C(F)(F)F)cc1` [Example 153, N-(cyanomethyl)-4-(2-((1-(tetrahydro-2H-pyran-4-yl)-1H-pyrazol-4-yl)amino)-5-(trifluoromethyl)pyrimidin-4-yl)benzamide], for which the pIC50 on JAK1 was 6.63; against JAK2V617F it was 6.55.
